# Test results published in ChEMBL document CHEMBL3399966, “Isosteric replacements of the carboxylic acid of drug candidate VX-787: Effect of charge on antiviral potency and kinase activity of azaindole-based influenza PB2 inhibitors” (Bioorg Med Chem Lett, 2015).
# Legend:
# Influenza A virus [1] = test: Antiviral activity against Influenza A virus A/PR/8/34 strain incubated with MDCK cells assessed as cell protection after 72 hrs by phenotypic cell protection assay; assay type: functional, organism-based; conditions: A/Puerto Rico/8/1934(H1N1)
# [2] = molecular target: Tyrosine-protein kinase SYK (Homo sapiens, UniProt P43405); test: Inhibition of SYK (unknown origin)
# [3] = molecular target: Tyrosine-protein kinase JAK2 (Homo sapiens, UniProt O60674); test: Inhibition of JAK2 (unknown origin)
# [4] = molecular target: Proto-oncogene tyrosine-protein kinase Src (Homo sapiens, UniProt P12931); test: Inhibition of SRC (unknown origin)
# [5] = molecular target: Vascular endothelial growth factor receptor 2 (Homo sapiens, UniProt P35968); test: Inhibition of KDR (unknown origin)
# [6] = molecular target: Rho-associated protein kinase (Homo sapiens, UniProt O75116+Q13464); test: Inhibition of ROCK (unknown origin); assay type: protein-complex assay
# [7] = Dissociation constant, pKa of the compound by UC titration method; assay type: physicochemical
# Influenza A virus [8] = test: Antiviral activity against influenza A virus A/PR/8/34 strain incubated with MDCK cells assessed as reduction of viral RNA level equal to 1% of control level after 72 hrs by branched DNA assay; assay type: functional, organism-based; conditions: A/Puerto Rico/8/1934(H1N1)
# [9] = molecular target: Phosphatidylinositol 4,5-bisphosphate 3-kinase catalytic subunit alpha isoform (Homo sapiens, UniProt P42336); test: Inhibition of PI3Kalpha (unknown origin)
# [10] = molecular target: Hepatocyte growth factor receptor (Homo sapiens, UniProt P08581); test: Inhibition of MET (unknown origin)
# [11] = molecular target: Serine/threonine-protein kinase PLK1 (Homo sapiens, UniProt P53350); test: Inhibition of PLK (unknown origin)
# [12] = molecular target: Glycogen synthase kinase-3 (Homo sapiens, UniProt P49840+P49841); test: Inhibition of GSK3 (unknown origin); assay type: protein assay
# [13] = molecular target: T1, Receptor-type tyrosine-protein kinase FLT3 (Homo sapiens, UniProt P36888); test: Inhibition of FLT3 (unknown origin)
# T1 sequence (P36888 whole entry): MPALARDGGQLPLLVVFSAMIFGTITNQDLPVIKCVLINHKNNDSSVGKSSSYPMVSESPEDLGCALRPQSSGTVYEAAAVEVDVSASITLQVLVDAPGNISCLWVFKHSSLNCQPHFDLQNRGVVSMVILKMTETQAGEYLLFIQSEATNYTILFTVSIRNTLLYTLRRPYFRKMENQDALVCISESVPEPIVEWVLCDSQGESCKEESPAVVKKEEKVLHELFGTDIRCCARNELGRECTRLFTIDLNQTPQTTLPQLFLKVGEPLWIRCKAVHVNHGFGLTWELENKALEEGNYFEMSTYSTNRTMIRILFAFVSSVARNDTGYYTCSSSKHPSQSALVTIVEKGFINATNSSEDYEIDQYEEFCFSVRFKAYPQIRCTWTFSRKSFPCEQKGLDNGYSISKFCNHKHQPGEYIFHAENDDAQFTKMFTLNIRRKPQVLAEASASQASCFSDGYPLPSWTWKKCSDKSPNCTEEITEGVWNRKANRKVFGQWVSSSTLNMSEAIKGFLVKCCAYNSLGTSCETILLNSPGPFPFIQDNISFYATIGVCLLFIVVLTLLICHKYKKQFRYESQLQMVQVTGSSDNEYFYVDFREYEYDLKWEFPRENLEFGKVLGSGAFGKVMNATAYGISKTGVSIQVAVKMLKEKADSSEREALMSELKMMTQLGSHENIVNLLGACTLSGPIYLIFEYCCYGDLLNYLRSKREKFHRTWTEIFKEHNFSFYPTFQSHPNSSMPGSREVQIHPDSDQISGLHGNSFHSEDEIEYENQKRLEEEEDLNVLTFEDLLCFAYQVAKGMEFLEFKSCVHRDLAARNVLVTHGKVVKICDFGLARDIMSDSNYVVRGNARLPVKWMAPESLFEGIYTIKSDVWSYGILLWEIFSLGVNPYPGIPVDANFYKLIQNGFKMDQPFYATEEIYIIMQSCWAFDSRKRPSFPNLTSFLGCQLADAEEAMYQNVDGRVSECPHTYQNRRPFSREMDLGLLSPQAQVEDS
# [14] = molecular target: cAMP-dependent protein kinase catalytic subunit alpha (Homo sapiens, UniProt P17612); test: Inhibition of PKAa (unknown origin)
# [15] = molecular target: T2, Phosphatidylinositol 4,5-bisphosphate 3-kinase catalytic subunit delta isoform (Homo sapiens, UniProt O00329); test: Inhibition of PI3Kdelta (unknown origin)
# T2 sequence (O00329 whole entry): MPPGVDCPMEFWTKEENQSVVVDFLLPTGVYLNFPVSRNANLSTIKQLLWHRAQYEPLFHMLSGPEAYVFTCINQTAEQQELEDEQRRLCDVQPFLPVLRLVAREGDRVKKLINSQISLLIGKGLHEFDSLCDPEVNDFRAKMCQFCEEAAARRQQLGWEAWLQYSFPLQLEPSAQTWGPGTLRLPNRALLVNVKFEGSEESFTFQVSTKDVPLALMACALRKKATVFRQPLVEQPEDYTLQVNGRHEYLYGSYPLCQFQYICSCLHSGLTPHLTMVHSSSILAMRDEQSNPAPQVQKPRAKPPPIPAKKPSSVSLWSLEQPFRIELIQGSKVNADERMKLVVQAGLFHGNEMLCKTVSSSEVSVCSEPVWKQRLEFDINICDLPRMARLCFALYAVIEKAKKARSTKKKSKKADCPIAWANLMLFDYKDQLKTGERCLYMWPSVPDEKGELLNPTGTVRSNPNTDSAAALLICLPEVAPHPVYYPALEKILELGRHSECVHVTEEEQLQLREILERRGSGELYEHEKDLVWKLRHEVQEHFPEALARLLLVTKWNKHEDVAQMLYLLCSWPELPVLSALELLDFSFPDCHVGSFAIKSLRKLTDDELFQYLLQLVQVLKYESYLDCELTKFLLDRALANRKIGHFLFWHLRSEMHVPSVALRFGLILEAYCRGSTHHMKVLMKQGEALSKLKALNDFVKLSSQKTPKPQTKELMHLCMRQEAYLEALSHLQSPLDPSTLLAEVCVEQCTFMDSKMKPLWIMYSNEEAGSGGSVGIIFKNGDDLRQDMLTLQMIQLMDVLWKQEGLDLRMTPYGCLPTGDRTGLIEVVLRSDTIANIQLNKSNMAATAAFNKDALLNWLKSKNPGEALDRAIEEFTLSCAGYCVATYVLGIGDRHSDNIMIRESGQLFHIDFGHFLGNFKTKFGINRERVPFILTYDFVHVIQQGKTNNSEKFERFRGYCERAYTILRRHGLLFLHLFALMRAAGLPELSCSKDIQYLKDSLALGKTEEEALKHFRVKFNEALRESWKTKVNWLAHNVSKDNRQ
# [16] = molecular target: Cyclin-dependent kinase 2 (Homo sapiens, UniProt P24941); test: Inhibition of CDK2 (unknown origin)
# [17] = molecular target: Mitogen-activated protein kinase 10 (Homo sapiens, UniProt P53779); test: Inhibition of JNK3 (unknown origin)
# [18] = molecular target: Phosphatidylinositol 4,5-bisphosphate 3-kinase catalytic subunit gamma isoform (Homo sapiens, UniProt P48736); test: Inhibition of PI3Kgamma (unknown origin)
# [19] = molecular target: T3, Interleukin-1 receptor-associated kinase 4 (Homo sapiens, UniProt Q9NWZ3); test: Inhibition of IRAK4 (unknown origin)
# T3 sequence (Q9NWZ3 whole entry): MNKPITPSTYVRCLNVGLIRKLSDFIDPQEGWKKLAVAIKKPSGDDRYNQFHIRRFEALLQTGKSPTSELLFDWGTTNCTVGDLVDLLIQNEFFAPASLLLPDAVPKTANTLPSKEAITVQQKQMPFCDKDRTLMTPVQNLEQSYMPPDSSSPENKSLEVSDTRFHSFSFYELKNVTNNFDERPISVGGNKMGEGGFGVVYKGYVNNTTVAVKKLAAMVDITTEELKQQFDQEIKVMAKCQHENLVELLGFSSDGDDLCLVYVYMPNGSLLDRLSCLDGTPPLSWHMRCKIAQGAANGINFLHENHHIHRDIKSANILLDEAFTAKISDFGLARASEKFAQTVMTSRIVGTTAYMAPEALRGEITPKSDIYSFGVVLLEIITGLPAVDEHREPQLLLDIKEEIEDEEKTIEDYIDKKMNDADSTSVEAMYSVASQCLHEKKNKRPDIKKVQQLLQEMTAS
# [20] = molecular target: Phosphatidylinositol 4,5-bisphosphate 3-kinase catalytic subunit beta isoform (Homo sapiens, UniProt P42338); test: Inhibition of PI3Kbeta (unknown origin)
# Phosphatidylinositol 4,5-bisphosphate 3-kinase catalytic subunit beta isoform, sequence (P42338 whole entry, canonical isoform): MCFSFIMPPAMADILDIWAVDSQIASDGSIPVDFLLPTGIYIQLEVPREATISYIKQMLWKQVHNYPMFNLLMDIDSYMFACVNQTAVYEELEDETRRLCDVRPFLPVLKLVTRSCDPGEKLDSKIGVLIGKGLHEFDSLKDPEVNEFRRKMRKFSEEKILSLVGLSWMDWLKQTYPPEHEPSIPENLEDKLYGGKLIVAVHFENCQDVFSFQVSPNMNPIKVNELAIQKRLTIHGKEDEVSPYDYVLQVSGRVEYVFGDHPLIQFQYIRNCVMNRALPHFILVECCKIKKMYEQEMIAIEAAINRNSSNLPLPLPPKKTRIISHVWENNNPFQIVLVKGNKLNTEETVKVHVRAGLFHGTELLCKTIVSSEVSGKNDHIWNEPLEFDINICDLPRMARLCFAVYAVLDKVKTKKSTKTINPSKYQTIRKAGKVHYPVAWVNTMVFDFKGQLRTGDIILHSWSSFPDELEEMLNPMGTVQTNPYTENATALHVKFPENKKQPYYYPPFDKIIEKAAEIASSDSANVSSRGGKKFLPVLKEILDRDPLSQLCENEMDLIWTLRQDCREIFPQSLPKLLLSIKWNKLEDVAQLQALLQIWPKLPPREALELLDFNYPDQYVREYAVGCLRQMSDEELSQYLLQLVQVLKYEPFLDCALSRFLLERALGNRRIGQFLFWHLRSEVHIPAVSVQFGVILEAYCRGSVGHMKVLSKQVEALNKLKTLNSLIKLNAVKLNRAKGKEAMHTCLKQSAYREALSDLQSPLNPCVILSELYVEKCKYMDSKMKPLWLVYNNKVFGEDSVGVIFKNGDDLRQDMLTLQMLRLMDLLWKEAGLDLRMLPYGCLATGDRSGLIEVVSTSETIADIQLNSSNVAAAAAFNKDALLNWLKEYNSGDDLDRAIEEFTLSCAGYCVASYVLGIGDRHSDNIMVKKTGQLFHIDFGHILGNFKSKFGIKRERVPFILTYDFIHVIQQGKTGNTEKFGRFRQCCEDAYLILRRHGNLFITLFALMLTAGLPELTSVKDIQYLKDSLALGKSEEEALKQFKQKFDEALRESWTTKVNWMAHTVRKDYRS
# Phosphatidylinositol 4,5-bisphosphate 3-kinase catalytic subunit alpha isoform, sequence (P42336 whole entry, canonical isoform): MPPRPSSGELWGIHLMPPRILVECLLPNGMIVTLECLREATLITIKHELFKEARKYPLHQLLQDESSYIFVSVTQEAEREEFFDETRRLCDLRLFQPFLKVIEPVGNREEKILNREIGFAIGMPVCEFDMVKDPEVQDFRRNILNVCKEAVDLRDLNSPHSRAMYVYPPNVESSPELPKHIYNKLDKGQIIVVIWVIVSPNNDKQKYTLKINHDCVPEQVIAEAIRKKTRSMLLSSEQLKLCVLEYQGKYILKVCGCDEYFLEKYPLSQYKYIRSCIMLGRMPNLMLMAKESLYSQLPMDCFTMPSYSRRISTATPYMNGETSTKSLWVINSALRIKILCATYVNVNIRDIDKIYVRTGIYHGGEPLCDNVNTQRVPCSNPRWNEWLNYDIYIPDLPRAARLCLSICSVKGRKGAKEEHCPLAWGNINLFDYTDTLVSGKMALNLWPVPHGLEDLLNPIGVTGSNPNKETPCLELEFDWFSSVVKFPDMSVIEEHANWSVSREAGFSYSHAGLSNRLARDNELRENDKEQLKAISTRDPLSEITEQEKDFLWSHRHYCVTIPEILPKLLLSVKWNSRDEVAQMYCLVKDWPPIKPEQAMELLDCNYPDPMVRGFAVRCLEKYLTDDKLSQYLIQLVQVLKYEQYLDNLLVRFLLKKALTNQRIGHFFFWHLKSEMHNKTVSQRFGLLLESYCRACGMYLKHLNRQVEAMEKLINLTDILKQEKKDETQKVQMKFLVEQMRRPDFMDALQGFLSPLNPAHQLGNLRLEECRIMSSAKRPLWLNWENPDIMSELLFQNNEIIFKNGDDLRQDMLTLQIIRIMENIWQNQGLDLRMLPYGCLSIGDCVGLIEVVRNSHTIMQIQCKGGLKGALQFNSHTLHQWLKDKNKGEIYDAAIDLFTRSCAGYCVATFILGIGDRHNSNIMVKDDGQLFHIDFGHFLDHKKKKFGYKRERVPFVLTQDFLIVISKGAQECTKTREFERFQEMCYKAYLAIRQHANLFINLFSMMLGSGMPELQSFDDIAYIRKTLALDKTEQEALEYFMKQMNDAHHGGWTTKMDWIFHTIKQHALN
# Hepatocyte growth factor receptor, sequence (P08581 whole entry): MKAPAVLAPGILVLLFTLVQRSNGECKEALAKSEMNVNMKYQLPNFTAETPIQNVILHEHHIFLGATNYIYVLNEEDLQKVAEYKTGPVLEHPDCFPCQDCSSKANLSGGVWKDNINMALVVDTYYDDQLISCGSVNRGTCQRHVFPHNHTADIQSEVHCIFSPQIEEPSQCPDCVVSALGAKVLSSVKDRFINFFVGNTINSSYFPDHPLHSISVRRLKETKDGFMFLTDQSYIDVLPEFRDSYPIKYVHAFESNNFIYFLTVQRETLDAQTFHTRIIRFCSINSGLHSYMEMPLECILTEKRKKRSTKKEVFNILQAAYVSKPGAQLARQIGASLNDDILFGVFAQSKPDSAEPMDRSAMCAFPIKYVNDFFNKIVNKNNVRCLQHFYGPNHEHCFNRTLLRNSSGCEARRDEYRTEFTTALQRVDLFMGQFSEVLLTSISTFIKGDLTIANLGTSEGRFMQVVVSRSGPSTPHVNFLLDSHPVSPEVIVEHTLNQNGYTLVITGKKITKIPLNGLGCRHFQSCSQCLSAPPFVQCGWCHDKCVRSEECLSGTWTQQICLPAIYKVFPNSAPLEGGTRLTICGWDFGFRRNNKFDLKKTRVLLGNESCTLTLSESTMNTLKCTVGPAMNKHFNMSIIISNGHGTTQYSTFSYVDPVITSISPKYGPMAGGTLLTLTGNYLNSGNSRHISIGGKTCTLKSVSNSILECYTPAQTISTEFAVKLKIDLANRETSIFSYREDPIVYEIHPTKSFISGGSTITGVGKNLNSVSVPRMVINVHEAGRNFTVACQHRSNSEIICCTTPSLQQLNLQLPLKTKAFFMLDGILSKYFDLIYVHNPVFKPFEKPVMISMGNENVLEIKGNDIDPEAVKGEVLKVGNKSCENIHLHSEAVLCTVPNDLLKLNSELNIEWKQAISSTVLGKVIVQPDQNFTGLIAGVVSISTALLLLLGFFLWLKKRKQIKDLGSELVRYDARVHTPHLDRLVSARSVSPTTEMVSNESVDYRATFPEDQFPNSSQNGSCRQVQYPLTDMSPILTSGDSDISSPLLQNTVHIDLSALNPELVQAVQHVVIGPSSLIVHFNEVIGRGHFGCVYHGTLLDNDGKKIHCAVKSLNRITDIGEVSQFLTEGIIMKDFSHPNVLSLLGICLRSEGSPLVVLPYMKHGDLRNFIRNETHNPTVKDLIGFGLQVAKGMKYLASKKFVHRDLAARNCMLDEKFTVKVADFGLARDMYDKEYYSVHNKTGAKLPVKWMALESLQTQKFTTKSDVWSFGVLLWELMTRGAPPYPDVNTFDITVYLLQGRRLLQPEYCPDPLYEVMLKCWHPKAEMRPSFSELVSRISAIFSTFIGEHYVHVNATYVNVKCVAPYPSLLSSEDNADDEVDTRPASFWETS
# Mitogen-activated protein kinase 10, sequence (P53779 whole entry, canonical isoform): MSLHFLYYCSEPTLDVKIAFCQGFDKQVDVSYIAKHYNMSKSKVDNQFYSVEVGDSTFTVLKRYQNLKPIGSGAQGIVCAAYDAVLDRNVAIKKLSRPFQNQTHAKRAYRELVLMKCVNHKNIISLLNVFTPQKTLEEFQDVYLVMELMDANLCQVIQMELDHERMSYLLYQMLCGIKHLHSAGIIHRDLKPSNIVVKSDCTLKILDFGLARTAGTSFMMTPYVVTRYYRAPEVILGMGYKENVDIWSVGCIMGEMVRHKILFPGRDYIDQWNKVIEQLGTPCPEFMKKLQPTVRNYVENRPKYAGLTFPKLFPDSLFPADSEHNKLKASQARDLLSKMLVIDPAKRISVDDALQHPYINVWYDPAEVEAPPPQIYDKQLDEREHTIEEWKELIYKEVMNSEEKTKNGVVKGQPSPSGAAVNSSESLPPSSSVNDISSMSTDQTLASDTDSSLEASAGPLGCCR
# Phosphatidylinositol 4,5-bisphosphate 3-kinase catalytic subunit gamma isoform, sequence (P48736 whole entry, canonical isoform): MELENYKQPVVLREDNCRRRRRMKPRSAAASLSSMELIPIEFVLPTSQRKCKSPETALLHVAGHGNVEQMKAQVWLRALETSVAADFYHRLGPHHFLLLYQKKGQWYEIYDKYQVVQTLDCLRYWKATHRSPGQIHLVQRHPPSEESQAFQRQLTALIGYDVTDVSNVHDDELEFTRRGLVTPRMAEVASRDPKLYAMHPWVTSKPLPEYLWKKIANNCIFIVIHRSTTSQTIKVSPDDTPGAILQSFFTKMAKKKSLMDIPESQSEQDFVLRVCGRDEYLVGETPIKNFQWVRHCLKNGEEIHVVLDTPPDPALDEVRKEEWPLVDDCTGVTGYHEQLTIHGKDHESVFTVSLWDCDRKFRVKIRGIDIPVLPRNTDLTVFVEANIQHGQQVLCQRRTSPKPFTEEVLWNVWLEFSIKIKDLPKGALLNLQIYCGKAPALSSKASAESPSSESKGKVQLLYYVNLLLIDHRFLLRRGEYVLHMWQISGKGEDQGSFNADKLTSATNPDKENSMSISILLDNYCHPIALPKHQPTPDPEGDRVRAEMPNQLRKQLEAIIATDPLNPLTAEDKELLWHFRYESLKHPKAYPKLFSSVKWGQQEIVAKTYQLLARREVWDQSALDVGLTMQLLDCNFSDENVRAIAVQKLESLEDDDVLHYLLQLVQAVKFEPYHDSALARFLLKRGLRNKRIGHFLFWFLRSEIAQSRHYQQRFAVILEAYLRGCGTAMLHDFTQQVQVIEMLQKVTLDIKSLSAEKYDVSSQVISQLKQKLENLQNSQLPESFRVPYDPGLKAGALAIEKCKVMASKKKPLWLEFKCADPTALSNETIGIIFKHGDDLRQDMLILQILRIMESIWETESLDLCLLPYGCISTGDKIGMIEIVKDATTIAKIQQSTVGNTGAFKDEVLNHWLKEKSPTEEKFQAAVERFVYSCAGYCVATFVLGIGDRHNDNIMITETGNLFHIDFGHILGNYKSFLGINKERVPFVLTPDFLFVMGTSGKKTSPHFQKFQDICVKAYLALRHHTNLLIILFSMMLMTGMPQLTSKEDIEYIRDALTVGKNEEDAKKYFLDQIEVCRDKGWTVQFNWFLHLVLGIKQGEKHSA
smiles,measurement,setting,value
O=c1[nH]c(=O)n(C[C@H]2C3CCC(CC3)[C@@H]2Nc2nc(-c3c[nH]c4ncc(F)cc34)ncc2F)o1 (mixture of isomers),IC50,Influenza A virus [1],48 nM
same,Ki,[2],> 4000 nM
same,Ki,[3],270 nM
same,Ki,[4],> 4000 nM
same,Ki,[5],> 4000 nM
same,Ki,[6],> 4000 nM
same,pKa,[7],5.2
same,EC50,Influenza A virus [8],36 nM
same,EC99,Influenza A virus [8],0.21 µM
same,Ki,[9],1500 nM
same,Ki,[10],> 4000 nM
same,Ki,[11],1100 nM
same,Ki,[12],23 nM
same,Ki,[13],210 nM
same,Ki,[14],> 4000 nM
same,Ki,[15],180 nM
same,Ki,[16],> 4000 nM
same,Ki,[17],> 4000 nM
same,Ki,[18],630 nM
same,Ki,[19],> 4000 nM
same,Ki,[20],2000 nM
